This passage reports AC50 results from patent publication US20230365592A1 (Agios Pharmaceuticals, Inc., priority 2022, published 2023).

A value given as a limit tells only on which side of the number the result lay.

The first experiment has as its target T1, human PAH with the R408W mutation (Homo sapiens, UniProt P00439, R408W).
T1 construct: expressed in transfected cells
T1 sequence (P00439 1-452 R408W): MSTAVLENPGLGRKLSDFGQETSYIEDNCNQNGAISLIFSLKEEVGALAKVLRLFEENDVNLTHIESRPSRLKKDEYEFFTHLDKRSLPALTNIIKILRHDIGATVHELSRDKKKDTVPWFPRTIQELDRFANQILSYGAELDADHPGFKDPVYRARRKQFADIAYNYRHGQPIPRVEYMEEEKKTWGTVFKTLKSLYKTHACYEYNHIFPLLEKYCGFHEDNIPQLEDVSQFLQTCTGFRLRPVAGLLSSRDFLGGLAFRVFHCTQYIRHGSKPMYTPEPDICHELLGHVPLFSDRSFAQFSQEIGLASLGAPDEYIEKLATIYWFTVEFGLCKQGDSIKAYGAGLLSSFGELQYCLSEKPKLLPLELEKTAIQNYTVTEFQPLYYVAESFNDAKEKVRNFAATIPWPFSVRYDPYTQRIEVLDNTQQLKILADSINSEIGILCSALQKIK
The experiment can be described thus: Cell Based Phenylalanine Flux Assay.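 Further: after compound treatment, cells received sepiapterin plus isotope-labelled Phenylalanine for 4 hours, then labelled Tyrosine in the medium was quantified, 10-point 2-fold dilution series run in duplicate.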 The conditions noted are these: A375 cells expressing R408W PAH; 24 hrs with compound, then 20 µM sepiapterin and 800 µM 13C9,15N-Phenylalanine for 4 hours; 13C-Tyrosine by LC-MS; average where tested multiple times; read-out: AC50.
Consider `CN(C)C(=O)c1nnc(N2CCc3[nH]cnc3[C@H]2c2cc3c(C(F)(F)F)cccn3n2)o1` (single isomer, unassigned), for which the AC50 was in the range of 1000 to 5000 nM.
Still for that read-out and setting: then `COc1cccn2nc([C@@H]3c4nc[nH]c4CCN3c3nnc(C4CC4)o3)cc12` (single isomer, unassigned), with 1000 to 5000 nM.
Still for that read-out and setting: then `Cc1cccn2nc([C@H]3c4nc[nH]c4CCN3c3nnc(-c4cccnc4)o3)cc12` (single isomer, unassigned), with over 5000 nM; and `Cc1nnc(N2CCc3[nH]cnc3[C@H]2c2cc3cccc(Cl)n3n2)o1` (single isomer, unassigned), with 1000 to 5000 nM.
With `COc1cccn2nc(C3c4nc[nH]c4CCN3C(=O)c3oc(C(C)(C)O)nc3C(F)F)cc12` (stereo not drawn), the AC50 was over 5000 nM.
Regarding `Fc1ncccc1-c1nnc(N2CCc3[nH]cnc3C2c2cc3c(C4CC4)cccn3n2)o1` (stereo not drawn), the AC50 lay in the range of 1000 to 5000 nM.
On the same count and under the same terms, then `CN(C)c1ccc2c(C(=O)N3CCc4[nH]cnc4C3c3cc4cccc(F)n4n3)cnn2c1` (stereo not drawn), with 1000 to 5000 nM; and `O=C(c1nnc(-c2cnn(C(F)(F)F)c2)o1)N1CCc2[nH]cnc2C1c1cc2cccc(F)n2n1` (stereo not drawn), with over 5000 nM.

The same experiment, now with this note: A375 cells expressing human PAH R408W; 24 hrs compound incubation; 13C-Tyrosine by LC-MS; average where tested multiple times; read-out: AC50.
Regarding `Cc1cccn2nc([C@H]3c4nc[nH]c4CCN3c3nnc(-c4ncccc4F)o3)cc12` [Example 2340, (R)-2-(3-fluoropyridin-2-yl)-5-(4-(4-methylpyrazolo[1,5-a]pyridin-2-yl)-1,4,6,7-tetrahydro-5H-imidazo[4,5-c]pyridin-5-yl)-1,3,4-oxadiazole], the half-maximal activity concentration (AC50) is over 5000 nM.
Same read-out and setting: under `O=C(c1nnc(-c2ncccc2F)o1)N1CCc2[nH]cnc2[C@H]1c1cc2c(C3CC3)cccn2n1` [Example 1855, (S)-(4-(4-cyclopropylpyrazolo[1,5-a]pyridin-2-yl)-1,4,6,7-tetrahydro-5H-imidazo[4,5-c]pyridin-5-yl)(5-(3-fluoropyridin-2-yl)-1,3,4-oxadiazol-2-yl)methanone] stands under 500 nM.
As to `Cn1cc(-c2nnc(C(=O)N3CCc4[nH]cnc4[C@@H]3c3cc4ccc(C(F)(F)F)cn4n3)o2)cn1` [Example 2417, (R)-(5-(1-methyl-1H-pyrazol-4-yl)-1,3,4-oxadiazol-2-yl)(4-(6-(trifluoromethyl)pyrazolo[1,5-a]pyridin-2-yl)-6,7-dihydro-1H-imidazo[4,5-c]pyridin-5(4H)-yl)methanone], the AC50 is 1000 to 5000 nM.
Still for that read-out and setting: under `FC(F)c1cccn2nc([C@@H]3c4nc[nH]c4CCN3c3ccc(C(F)(F)F)cn3)cc12` [Example 1916, (S)-4-(4-(difluoromethyl)pyrazolo[1,5-a]pyridin-2-yl)-5-(5-(trifluoromethyl)pyridin-2-yl)-4,5,6,7-tetrahydro-1H-imidazo[4,5-c]pyridine] stands under 500 nM; under `Cc1cccc2cc([C@@H]3c4nc[nH]c4CCN3c3nnc(-c4ccc(F)cc4)o3)nn12` [Example 2010, (S)-2-(4-fluorophenyl)-5-(4-(7-methylpyrazolo[1,5-a]pyridin-2-yl)-1,4,6,7-tetrahydro-5H-imidazo[4,5-c]pyridin-5-yl)-1,3,4-oxadiazole], under 500 nM; under `FC(F)(F)c1cccn2nc([C@@H]3c4nc[nH]c4CCN3c3ccccn3)cc12` [Example 1870, (S)-5-(pyridin-2-yl)-4-(4-(trifluoromethyl)pyrazolo[1,5-a]pyridin-2-yl)-4,5,6,7-tetrahydro-1H-imidazo[4,5-c]pyridine], under 500 nM.
As for `Cc1ncccc1-c1nnc(N2CCc3[nH]cnc3[C@@H]2c2cc3c(C)cccn3n2)o1` [Example 2207, (R)-2-(4-(4-methylpyrazolo[1,5-a]pyridin-2-yl)-1,4,6,7-tetrahydro-5H-imidazo[4,5-c]pyridin-5-yl)-5-(2-methylpyridin-3-yl)-1,3,4-oxadiazole], the AC50 was over 5000 nM.

The same experiment, now with this note: A375 cells expressing human R408W PAH; 24 hrs compound incubation; 13C-Tyrosine by LC-MS; average where tested multiple times; read-out: AC50.
With `Cc1cccc2cc([C@H]3c4nc[nH]c4CCN3c3nnc(C(F)F)o3)nn12` [Example 1740, (R)-2-(difluoromethyl)-5-(4-(7-methylpyrazolo[1,5-a]pyridin-2-yl)-6,7-dihydro-1H-imidazo[4,5-c]pyridin-5(4H)-yl)-1,3,4-oxadiazole], the AC50 is over 5000 nM.
Take `Cc1ncoc1C(=O)N1CCc2[nH]cnc2[C@H]1c1cc2c(C)cccn2n1` [Example 770, (S)-(4-methyloxazol-5-yl)(4-(4-methylpyrazolo[1,5-a]pyridin-2-yl)-6,7-dihydro-1H-imidazo[4,5-c]pyridin-5(4H)-yl)methanone]: the AC50 is under 500 nM.
On to `O=C(c1cnn2cc(-c3ccccn3)ccc12)N1CCc2[nH]cnc2[C@@H]1c1cc2c(C(F)(F)F)cccn2n1` [Example 1551, (R)-(6-(pyridin-2-yl)pyrazolo[1,5-a]pyridin-3-yl)(4-(4-(trifluoromethyl)pyrazolo[1,5-a]pyridin-2-yl)-6,7-dihydro-1H-imidazo[4,5-c]pyridin-5(4H)-yl)methanone], for which the AC50 was in the range of 1000 to 5000 nM.
In the case of `Cc1cccn2nc([C@H]3c4nc[nH]c4CCN3C(=O)c3cnn4cc(-c5ccccn5)ccc34)cc12` [Example 1649, (R)-(4-(4-methylpyrazolo[1,5-a]pyridin-2-yl)-6,7-dihydro-1H-imidazo[4,5-c]pyridin-5(4H)-yl)(6-(pyridin-2-yl)pyrazolo[1,5-a]pyridin-3-yl)methanone], the AC50 is over 5000 nM.
As for `Cc1cccn2nc([C@@H]3c4nc[nH]c4CCN3C(=O)c3nnc(-c4ccncc4)o3)cc12` [Example 850, (S)-(4-(4-methylpyrazolo[1,5-a]pyridin-2-yl)-6,7-dihydro-1H-imidazo[4,5-c]pyridin-5(4H)-yl)(5-(pyridin-4-yl)-1,3,4-oxadiazol-2-yl)methanone], the AC50 is under 500 nM.
Regarding `Cc1ccc2c(C(=O)N3CCc4[nH]cnc4[C@H]3c3cc4c(Cl)cccn4n3)cnn2c1` [Example 1714, (S)-(4-(4-chloropyrazolo[1,5-a]pyridin-2-yl)-6,7-dihydro-1H-imidazo[4,5-c]pyridin-5(4H)-yl)(6-methylpyrazolo[1,5-a]pyridin-3-yl)methanone], the AC50 was under 500 nM.
Same read-out and setting: under `Cc1nc([C@@H](C)O)oc1C(=O)N1CCc2[nH]cnc2[C@H]1c1cc2c(F)cccn2n1` [Example 726, ((S)-4-(4-fluoropyrazolo[1,5-a]pyridin-2-yl)-6,7-dihydro-1H-imidazo[4,5-c]pyridin-5(4H)-yl)(2-((R)-1-hydroxyethyl)-4-methyloxazol-5-yl)methanone] stands 500 to 1000 nM; under `O=C(c1nnc(-c2ccn(C(F)F)n2)o1)N1CCc2[nH]cnc2[C@@H]1c1cc2ccccn2n1` [Example 667, (R)-(5-(1-(difluoromethyl)-1H-pyrazol-3-yl)-1,3,4-oxadiazol-2-yl)(4-(pyrazolo[1,5-a]pyridin-2-yl)-6,7-dihydro-1H-imidazo[4,5-c)pyridin-5(4H)-yl)methanone], over 5000 nM.
Regarding `O=C(c1nnc(-c2cnn(C(F)(F)F)c2)o1)N1CCc2[nH]cnc2[C@H]1c1cc2c(F)cccn2n1` [Example 1540, (S)-(4-(4-fluoropyrazolo[1,5-a]pyridin-2-yl)-6,7-dihydro-1H-imidazo[4,5-c]pyridin-5(4H)-yl)(5-(1-(trifluoromethyl)-1H-pyrazol-4-yl)-1,3,4-oxadiazol-2-yl)methanone], the AC50 is 500 to 1000 nM.
For the molecule `Cn1ccc(-c2nnc(C(=O)N3CCc4[nH]cnc4[C@H]3c3cc4cccc(Cl)n4n3)o2)n1` [Example 976, (S)-(4-(7-chloropyrazolo[1,5-a]pyridin-2-yl)-6,7-dihydro-1H-imidazo[4,5-c)pyridin-5(4H)-yl)(5-(1-methyl-1H-pyrazol-3-yl)-1,3,4-oxadiazol-2-yl)methanone], the AC50 was under 500 nM.
Same read-out and setting: under `Cn1cncc1-c1nc(C(F)F)c(C(=O)N2CCc3[nH]cnc3[C@H]2c2cc3ccccn3n2)o1` [Example 869, (S)-(4-(difluoromethyl)-2-(1-methyl-1H-imidazol-5-yl)oxazol-5-yl)(4-(pyrazolo[1,5-a]pyridin-2-yl)-6,7-dihydro-1H-imidazo[4,5-c]pyridin-5(4H)-yl)methanone] stands 500 to 1000 nM.
On the same count and under the same terms, then `Cc1cccn2nc([C@@H]3c4nc[nH]c4CCN3C(=O)c3nnc(C4CC4)o3)cc12` [Example 924, (S)-(5-cyclopropyl-1,3,4-oxadiazol-2-yl)(4-(4-methylpyrazolo[1,5-a]pyridin-2-yl)-6,7-dihydro-1H-imidazo[4,5-c]pyridin-5(4H)-yl)methanone], with under 500 nM; and `CC(C)(O)c1nc(Cl)c(C(=O)N2CCc3[nH]cnc3[C@H]2c2cc3ccccn3n2)o1` [Example 990, (S)-(4-chloro-2-(2-hydroxypropan-2-yl)oxazol-5-yl)(4-(pyrazolo[1,5-a]pyridin-2-yl)-6,7-dihydro-1H-imidazo[4,5-c]pyridin-5(4H)-yl)methanone], with 500 to 1000 nM; and `O=C(c1ocnc1C(F)(F)F)N1CCc2[nH]cnc2[C@H]1c1cc2cccc(Cl)n2n1` [Example 1172, (S)-(4-(7-chloropyrazolo[1,5-a]pyridin-2-yl)-6,7-dihydro-1H-imidazo[4,5-c]pyridin-5(4H)-yl)(4-(trifluoromethyl)oxazol-5-yl)methanone], with under 500 nM.
Same read-out and setting: under `FC(F)(F)c1cccc2cc([C@H]3c4nc[nH]c4CCN3c3ncccn3)nn12` [Example 1764, (R)-5-(pyrimidin-2-yl)-4-(7-(trifluoromethyl)pyrazolo[1,5-a]pyridin-2-yl)-4,5,6,7-tetrahydro-1H-imidazo[4,5-c]pyridine] stands 1000 to 5000 nM.

By AC50 is commonly meant the concentration giving half of the maximal activity seen.
